Experiment [1] deals with SMA-560. The experiment can be described thus: Antitumor activity against mouse SMA-560 cells xenografted in VM/Dk mouse assessed as decrease in number of CD31-positive intra-tumoral vessels in tumor at 100 mg/kg,po daily with 12 Gy irradition after 2days of treatment initiation by immunohistochemistry analysis. Type of experiment: functional, organism-based.
The target of experiment [2] is T1, Discoidin domain-containing receptor 2 (Homo sapiens, UniProt Q16832).
T1 sequence (Q16832 whole entry): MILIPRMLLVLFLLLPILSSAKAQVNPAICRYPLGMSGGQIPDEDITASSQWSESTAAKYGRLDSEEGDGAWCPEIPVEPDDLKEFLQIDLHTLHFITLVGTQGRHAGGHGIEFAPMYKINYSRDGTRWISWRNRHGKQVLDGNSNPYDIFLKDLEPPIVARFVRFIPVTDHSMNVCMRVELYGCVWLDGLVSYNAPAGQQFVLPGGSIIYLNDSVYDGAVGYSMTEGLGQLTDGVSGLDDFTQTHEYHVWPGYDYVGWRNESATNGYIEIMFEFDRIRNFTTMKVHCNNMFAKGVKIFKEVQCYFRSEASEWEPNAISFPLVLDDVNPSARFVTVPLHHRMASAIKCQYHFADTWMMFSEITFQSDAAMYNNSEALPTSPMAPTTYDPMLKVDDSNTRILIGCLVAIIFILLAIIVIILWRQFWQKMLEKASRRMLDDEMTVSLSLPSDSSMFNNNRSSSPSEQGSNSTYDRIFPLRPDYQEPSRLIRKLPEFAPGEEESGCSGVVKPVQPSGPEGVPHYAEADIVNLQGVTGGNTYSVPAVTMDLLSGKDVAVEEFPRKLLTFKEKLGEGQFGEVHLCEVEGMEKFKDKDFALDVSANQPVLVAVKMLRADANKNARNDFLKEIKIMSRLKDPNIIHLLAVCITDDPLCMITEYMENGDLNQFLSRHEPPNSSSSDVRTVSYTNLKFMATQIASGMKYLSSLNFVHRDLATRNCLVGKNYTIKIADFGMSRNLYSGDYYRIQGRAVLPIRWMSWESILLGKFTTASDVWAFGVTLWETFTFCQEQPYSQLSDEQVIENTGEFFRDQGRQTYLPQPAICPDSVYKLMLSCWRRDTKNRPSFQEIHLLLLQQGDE
The experiment can be described thus: Binding affinity to DDR2 (unknown origin) assessed as dissociation constant by KINOME scan assay.

Experiment [3] has as its system SMA-497. The experiment can be described thus: In vivo inhibition of TIE-2 in VM/Dk mouse xenografted with mouse SMA-497 cells assessed as decrease in TIE-2 expression in brain blood vessels at 100 mg/kg,po daily by immunohistochemistry analysis. It counts as functional, organism-based.
The subject of experiment [4] is SMA-497. The experiment can be described thus: Induction of cell cycle arrest in mouse SMA-497 cells assessed as accumulation at S phase at 0.1 uM incubated for 72 hrs by propidium iodide/RNase staining based flow cytomtery (Rvb= 8%). It counts as functional.
Experiment [5] relates to SMA-497. Description: Antitumor activity against mouse SMA-497 cells xenografted in VM/Dk mouse assessed as decrease in tumor volume at 100 mg/kg,po daily by H and E staining based microscopy. Type of experiment: functional, organism-based.
Experiment [6] concerns SMA-497. Description: Induction of apoptosis in mouse SMA-497 cells assessed as necrotic cells at 0.1 uM incubated for 72 hrs by Annexin V-FITC/PI staining based flow cytometric analysis (reference value: 14.7%). It counts as functional. For orientation: Flow cytometry measures light scatter and fluorescence of single cells or particles in a stream.
The subject of experiment [7] is SMA-497. The experiment can be described thus: Induction of apoptosis in mouse SMA-497 cells assessed as late apoptotic cells at 0.1 uM incubated for 72 hrs by Annexin V-FITC/PI staining based flow cytometric analysis (reference value: 1.86%). Type of experiment: functional.
Experiment [8] relates to SMA-560. Description: Induction of cell cycle arrest in mouse SMA-560 cells assessed as accumulation at G0/G1 phase at 0.1 uM incubated for 72 hrs by propidium iodide/RNase staining based flow cytomtery (Rvb= 71%). It counts as functional.
Experiment [9] relates to SMA-540. Description: Antitumor activity against mouse SMA-540 cells xenografted in VM/Dk mouse assessed as tumor cell proliferation at 100 mg/kg,po daily by Ki67 staining based immunohistochemistry analysis. Type of experiment: functional, organism-based.
Experiment [10] has as its system SMA-560. Description: Antitumor activity against mouse SMA-560 cells xenografted in VM/Dk mouse assessed as tumor cell proliferation at 100 mg/kg,po daily by Ki67 staining based immunohistochemistry analysis. It counts as functional, organism-based.
In experiment [11] the test system is SMA-560. Description: Antitumor activity against mouse SMA-560 cells xenografted in VM/Dk mouse assessed as decrease in tumor volume at 100 mg/kg,po daily with 12 Gy irradition after 2days of treatment initiation by H and E staining based microscopy. It counts as functional, organism-based.
Experiment [12] has as its system SMA-560. Description: Anti-clonogenicic activity in mouse SMA-560 cells assessed as reduction in colony formation at 0.1 to 1 uM preincubated for 6 hrs followed by temozolomide addition and measured after 10 days by MTT based clonogenic survival assay. It counts as functional, cell-based. Conditions: dose 0.1-1 µM, time 246.0 hrs.
Experiment [13] relates to SMA-497. Description: Anti-clonogenicic activity in mouse SMA-497 cells assessed as reduction in colony formation at 0.001 to 10 uM and measured after 10 days by MTT based clonogenic survival assay. It counts as functional, cell-based. Conditions: dose 0.001-10 µM, time 10.0 day.
In experiment [14] the test system is SMA-540. The experiment can be described thus: Antitumor activity against mouse SMA-540 cells xenografted in VM/Dk mouse assessed as decrease in number of CD31-positive intra-tumoral vessels in tumor at 100 mg/kg,po daily by immunohistochemistry analysis. Type of experiment: functional, organism-based.
The test system of experiment [15] is SMA-497. Description: Induction of apoptosis in mouse SMA-497 cells assessed as live cells at 0.1 uM incubated for 72 hrs by Annexin V-FITC/PI staining based flow cytometric analysis (reference value: 83.4%). It counts as functional.

The structures appear in SMILES notation. Calls of active or inactive are those of the source. The rule behind the calls is not given here.

As usually defined, the Kd is the constant that tells how readily two partners part at equilibrium. Consider `Cc1cc(C)c(-n2ccn3nc(-c4cccnc4)cc23)cc1NC(=O)c1cc(C#N)cc(S(F)(F)(F)(F)F)c1` [BAY-826], for which the result in experiment [1] and in experiment [11] was Active. Also, the Kd in experiment [2] was 1.3 nM. Moreover, the inhibition entry in experiment [3] is “Active”. The Activity amounted to 11% in experiment [4]; 18.3% in experiment [6]; 0.3% in experiment [7]; 67% in [8]; 91.4% in experiment [15]. In addition, the outcome in experiment [5], in [9], in [10], in experiment [12], in experiment [13] and in [14] was inactive.

These data come from ChEMBL document CHEMBL5653627 (J Neurochem, 2017).
